Data as given in patent US9745305B2, “Modulators of methyl modifying enzymes, compositions and uses thereof” (Constellation Pharmaceuticals, Inc., priority 2013, dated 2017).

Legend:
[1] = biological target: EZH2 (Homo sapiens, UniProt Q15910); assay: EZH2 Assay (3H SAM methyl transfer, rPRC2, FlashPlate); assay type: biochemical; details: rPRC2, biotinylated oligonucleosomes, 0.2 μM 3H SAM, 2 nM EZH2
Procedure: (§1) EZH2 Assay: Assays were carried out by mixing rPRC2 together with biotinylated oligonucleosome substrates in the presence of the radio-labeled enzyme co-factor, S-adenosyl-L-methionine (^3H SAM) (Perkin Elmer) and monitoring the enzymatically mediated transfer of tritiated methyl groups from ^3H SAM to histone lysine residues. The amount of resulting tritiated methyl histone product was measured by first capturing the biotinylated oligonucleosomes in streptavidin (SAV) coated FlashPlates (Perkin Elmer), followed by a wash step to remove unreacted ^3H SAM, and then counting on a TopCount NXT 384 well plate scintillation counter (Perkin Elmer). The final assay conditions for EZH2 were as follows: 50 mM Tris Buffer pH 8.5, 1 mM DTT, 69 μM Brij-35 detergent, 5.0 mM MgCl2, 0.1 mg/mL BSA, 0.2 μM ^3H SAM, 0.2 μM biotinylated oligonucleosomes, 3.6 μM H3K27me3 peptide and 2 nM EZH2.
(§2) Compound IC50 measurements were obtained as follows: Compounds were first dissolved in 100% DMSO as 10 mM stock solutions. Ten point dose response curves were generated by dispensing varying amounts of the 10 mM compound solution in 10 wells of the 384 well plate (Echo; Labcyte), pure DMSO was then used to backfill the wells to insure all wells have the same amount of DMSO. A 12.5 μL volume of the HMT enzyme, H3K27me3 peptide and oligonucleosome substrate in assay buffer was added to each well of the assay plate using a Multidrop Combi (ThermoFisher). Compounds were pre-incubated with the enzyme for 20 min, followed by initiation of the methyltransferase reaction by addition of 12.5 μL of ^3H SAM in assay buffer (final volume=25 μL). The final concentrations of compounds ranged from a top default concentration of 80 μM down to 0.16 μM in ten 2-fold dilution steps. Reactions were carried out for 60 minutes and quenched with 20 μL per well of 1.96 mM SAH, 50 mM Tris pH 8.5, 200 mM EDTA. Stopped reactions were transferred to SAV coated Flashplates (Perkin Elmer), incubated for 120 min, washed with a plate washer, and then read on the TopCount NXT (1.0 min/well) to measure the amount of methyl histone product formed during the reaction. The amount of methyl histone product was compared with the amount of product formed in the 0% and 100% inhibition control wells allowing the calculation of % Inhibition in the presence of the individual compounds at various concentrations. IC50's were computed using a 4 parameter fit non-linear curve fitting software package (XLFIT, part of the database package, ActivityBase (IDBS)) where the four parameters were IC50, Hill slope, pre-transitional baseline (0% INH), and post-transitional baseline (100% INH); with the latter two parameters being fixed to zero and 100%, respectively, by default.

[2] = biological target: Y641N EZH2 (Homo sapiens, UniProt Q15910, Y641N); assay: Assay for Y641N EZH2 (as the EZH2 assay, H3K27Me2 oligonucleosomes as substrate); assay type: biochemical; details: Y641N EZH2 mutant, reconstituted H3K27Me2 oligonucleosomes as substrate
Sequence of Y641N EZH2 (Q15910 whole entry Y641N): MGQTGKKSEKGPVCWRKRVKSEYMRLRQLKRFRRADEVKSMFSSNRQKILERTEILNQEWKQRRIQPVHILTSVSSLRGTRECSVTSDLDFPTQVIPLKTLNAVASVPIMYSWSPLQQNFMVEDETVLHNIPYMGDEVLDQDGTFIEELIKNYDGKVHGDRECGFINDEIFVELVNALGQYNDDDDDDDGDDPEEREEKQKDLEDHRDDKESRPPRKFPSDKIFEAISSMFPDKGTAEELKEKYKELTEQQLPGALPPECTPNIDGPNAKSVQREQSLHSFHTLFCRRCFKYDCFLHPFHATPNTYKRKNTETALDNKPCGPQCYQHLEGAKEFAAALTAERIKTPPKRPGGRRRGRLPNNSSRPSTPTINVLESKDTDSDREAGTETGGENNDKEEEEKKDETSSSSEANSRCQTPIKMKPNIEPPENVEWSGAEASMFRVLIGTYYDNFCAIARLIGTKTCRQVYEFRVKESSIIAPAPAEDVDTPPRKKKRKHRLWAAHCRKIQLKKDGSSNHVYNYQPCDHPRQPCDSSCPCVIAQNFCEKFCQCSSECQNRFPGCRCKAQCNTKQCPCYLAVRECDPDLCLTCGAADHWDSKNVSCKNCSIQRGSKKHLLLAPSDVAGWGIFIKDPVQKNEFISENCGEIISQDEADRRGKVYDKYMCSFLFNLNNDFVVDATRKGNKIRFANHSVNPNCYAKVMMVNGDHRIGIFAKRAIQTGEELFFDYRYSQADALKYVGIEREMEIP
Sequence of Y641N EZH2 (O75530 whole entry partner): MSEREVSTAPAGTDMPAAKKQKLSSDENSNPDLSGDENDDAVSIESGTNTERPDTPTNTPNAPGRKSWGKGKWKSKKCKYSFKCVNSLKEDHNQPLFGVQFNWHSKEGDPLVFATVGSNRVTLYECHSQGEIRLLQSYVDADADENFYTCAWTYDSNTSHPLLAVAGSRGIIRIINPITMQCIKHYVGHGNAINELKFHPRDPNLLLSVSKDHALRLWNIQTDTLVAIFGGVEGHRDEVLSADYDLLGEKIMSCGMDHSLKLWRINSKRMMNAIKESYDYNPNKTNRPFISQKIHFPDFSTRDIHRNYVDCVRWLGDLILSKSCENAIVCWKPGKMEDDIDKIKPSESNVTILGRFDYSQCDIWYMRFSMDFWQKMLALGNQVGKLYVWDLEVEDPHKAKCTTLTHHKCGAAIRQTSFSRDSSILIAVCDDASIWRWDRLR
Sequence of Y641N EZH2 (Q15022 whole entry partner): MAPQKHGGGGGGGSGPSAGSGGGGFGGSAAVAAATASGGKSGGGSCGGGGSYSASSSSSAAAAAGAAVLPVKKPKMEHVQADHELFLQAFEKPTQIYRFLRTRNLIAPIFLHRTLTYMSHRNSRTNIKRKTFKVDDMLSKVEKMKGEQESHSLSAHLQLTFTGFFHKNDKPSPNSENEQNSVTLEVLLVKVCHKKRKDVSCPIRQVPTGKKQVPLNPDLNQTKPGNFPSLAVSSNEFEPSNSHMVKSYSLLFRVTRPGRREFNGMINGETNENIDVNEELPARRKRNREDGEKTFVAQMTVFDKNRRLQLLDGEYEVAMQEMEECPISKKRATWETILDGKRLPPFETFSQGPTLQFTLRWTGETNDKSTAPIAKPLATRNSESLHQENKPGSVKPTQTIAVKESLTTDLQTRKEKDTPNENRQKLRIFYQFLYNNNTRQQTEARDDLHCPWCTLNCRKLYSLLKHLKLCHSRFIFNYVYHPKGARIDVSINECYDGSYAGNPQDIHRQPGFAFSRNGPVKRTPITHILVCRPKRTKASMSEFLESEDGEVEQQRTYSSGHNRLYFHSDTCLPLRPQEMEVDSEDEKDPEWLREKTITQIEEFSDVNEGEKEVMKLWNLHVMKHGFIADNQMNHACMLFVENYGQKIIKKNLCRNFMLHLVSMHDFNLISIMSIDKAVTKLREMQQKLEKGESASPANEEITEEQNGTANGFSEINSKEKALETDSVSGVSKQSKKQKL
Procedure: as §1, §2
Assay for Y641N EZH2 was performed as above using reconstituted H3K27Me2 oligonucleosomes as substrate.

[3] = system: H3K27me3 mark in Hela cells expressing wild type EZH2; assay: H3K27me3 Alpha Hela Assay (AlphaLISA); assay type: cell-based; details: Homo sapiens, 72 hrs, read-out: H3K27me3_Alpha_HeLa (EC50)
Procedure: H3K27me3 Alpha Hela Assay (AlphaLISA). Ten different doses of each test compound (in a series of 3-fold dilutions) were plated in duplicate 384-well tissue culture treated plates (Catalog #781080; Greiner Bio One; Monroe, N.C.). Hela cells grown in culture were trypsinized and counted using a Countess® cell counter (Catalog # C10281; Life Technologies, Grand Island, N.Y.). Cell were diluted to 67,000 cells per mL in 10% DMEM (Catalog #10569-010 Life Technologies, Grand Island, N.Y.) and 15 μL (1,000 cells) were plated into each well using the Biotek MicroFlo™ Select Dispenser (BioTek Instruments, Inc. Vermont, USA),) of the 384-well plate. Plates were incubated at 37° C./5% CO2 for 72 hrs. One of the duplicate plates was processed for HeLa assay and the other for viability.
To the plate processed for AlphaLISA was added 5 μL per well Cell-Histone Lysis buffer (1×) (Catalog # AL009F1 Perkin Elmer; Waltham, Mass.) and the plate was incubated at RT for 30 minutes on a plate shaker with low speed (Model#4625-Q Thermo Scientific; Waltham, Mass.). Then, 10 μL per well Histone Extraction buffer (catalog # AL009F2; Perkin Elmer; Waltham, Mass.) was added and the plate further incubated at RT for 20 min on plate shaker with low speed. To each well was then added 10 μL per well of a 5× mix of anti-K27me3 acceptor beads plus Biotinylated anti-Histone H3 (C-ter) Antibody (diluted to 3 nM final) (Catalog #AL118 Perkin Elmer; Waltham, Mass.). Dilution of the acceptor beads and then anti-Histone H3 was with 1× Histone Detection buffer (Catalog # AL009F3 Perkin Elmer; Waltham, Mass.) which was produced diluted from the 10× stock provided. The plate was sealed with an aluminum plate sealer and incubated at 23° C. for 60 min. We then added 10 μL 5× solution of Streptavidin Donor beads (Catalog #6760002 Perkin Elmer; Waltham, Mass.) (20 μg/mL final in 1× Histone Detection Buffer), sealed the plate with Aluminum plate sealer and incubated at 23° C. for 30 min. The plates were then read using an EnVision-Alpha Reader (model #2104 Perkin Elmer; Waltham, Mass.).
Data from both assays was analyzed using Assay Assistant (Constellation Pharmaceuticals In-house product) and Activity Base (IDBS Ltd, Surrey, UK) template. Data files were imported to Assay Assistant and assay conditions were specified. A unique Analysis ID was created and the data files exported to Activity Base. An analysis template was created on Activity Base to measure dose-dependent inhibition of H3K27me3 mark and cell viability respectively. Readout of DMSO wells were used to normalize the data. Resulting curves were fitted using Activity base software Model 205 (IDBS Ltd, Surrey, UK). The data was checked for quality, validated and integrated in excel format using SARview (IDBS Ltd, Surrey, UK).

Sequence of EZH2 (Q15910 whole entry): as the sequence (Q15910 whole entry Y641N) above, with N641Y counted along it
Sequence of EZH2 (O75530 whole entry partner): as the sequence (O75530 whole entry partner) above
Sequence of EZH2 (Q15022 whole entry partner): as the sequence (Q15022 whole entry partner) above

IC50 [1] [nM] | IC50 [2] [nM] | EZH2 IC50 [1] | Y641N EZH2 IC50 [2] | EC50 [3] [nM] | Structure (SMILES)
< 100 | 100 to 1000 | – | – | – | COc1cc(C)[nH]c(=O)c1CNC(=O)c1c(C)c(C(C)N(C)C(C)=O)n2ncccc12 (racemic) [Compound 104, (±)-N-((4-methoxy-6-methyl-2-oxo-1,2-dihydropyridin-3-yl)methyl)-6-methyl-7-(1-(N-methylacetamido)ethyl)pyrrolo[1,2-b]pyridazine-5-carboxamide]
– | 1000 to 10000 | *(0.25 μM) | – | – | COc1cc(C)[nH]c(=O)c1CNC(=O)c1c(C)c(C(C)c2cccn(C)c2=O)n2ncccc12 (racemic) [Compound 111, (±)-N-((4-methoxy-6-methyl-2-oxo-1,2-dihydropyridin-3-yl)methyl)-6-methyl-7-(1-(1-methyl-2-oxo-1,2-dihydropyridin-3-yl)ethyl)pyrrolo[1,2-b]pyridazine-5-carboxamide]
< 100 | < 100 | – | – | – | CCS(=O)(=O)N1CCC(C(C)c2c(C)c(C(=O)NCc3c(OC)cc(C)[nH]c3=O)n3ccncc23)CC1 (racemic) [Compound 117, (±)-8-(1-(1-(ethylsulfonyl)piperidin-4-yl)ethyl)-N-((4-methoxy-6-methyl-2-oxo-1,2-dihydropyridin-3-yl)methyl)-7-methylpyrrolo[1,2-a]pyrazine-6-carboxamide]
< 100 | < 100 | – | – | – | CCS(=O)(=O)N1CCC(C(C)c2c(C)c(C(=O)NCc3c(OC)cc(C)[nH]c3=O)c3cnccn23)CC1 (racemic) [Compound 119, (±)-6-(1-(1-(ethylsulfonyl)piperidin-4-yl)ethyl)-N-((4-methoxy-6-methyl-2-oxo-1,2-dihydropyridin-3-yl)methyl)-7-methylpyrrolo[1,2-a]pyrazine-8-carboxamide]
< 100 | 100 to 1000 | – | – | – | Cc1cc(C)c(CNC(=O)c2c(C)c(C(C)C3CCN(C)CC3)n3ncccc23)c(=O)[nH]1 (racemic) [Compound 124, (±)-N-((4,6-dimethyl-2-oxo-1,2-dihydropyridin-3-yl)methyl)-6-methyl-7-(1-(1-methylpiperidin-4-yl)ethyl)pyrrolo[1,2-b]pyridazine-5-carboxamide]
1000 to 10000 | > 10000 | – | – | – | COc1cc(C)[nH]c(=O)c1CNC(=O)c1c(C)c(C(C)=O)n2ncccc12 [Compound 100, 7-acetyl-N-((4-methoxy-6-methyl-2-oxo-1,2-dihydropyridin-3-yl)methyl)-6-methylpyrrolo[1,2-b]pyridazine-5-carboxamide]
100 to 1000 | 100 to 1000 | – | – | – | COc1cc(C)[nH]c(=O)c1CNC(=O)c1c(C)c(-c2ccnn2C)n2ncccc12 [Compound 109, N-((4-methoxy-6-methyl-2-oxo-1,2-dihydropyridin-3-yl)methyl)-6-methyl-7-(1-methyl-1H-pyrazol-5-yl)pyrrolo[1,2-b]pyridazine-5-carboxamide]
< 100 | < 100 | – | – | – | Cc1cc(C)c(CNC(=O)c2c(C)c(-c3c(C)noc3C)n3ncccc23)c(=O)[nH]1 [Compound 118, N-((4,6-dimethyl-2-oxo-1,2-dihydropyridin-3-yl)methyl)-7-(3,5-dimethylisoxazol-4-yl)-6-methylpyrrolo[1,2-b]pyridazine-5-carboxamide]
100 to 1000 | 100 to 1000 | – | – | – | COc1cc(C)[nH]c(=O)c1CNC(=O)c1c(C)c(-c2c(C)cnn2C)n2ncccc12 [Compound 120, 7-(1,4-dimethyl-1H-pyrazol-5-yl)-N-((4-methoxy-6-methyl-2-oxo-1,2-dihydropyridin-3-yl)methyl)-6-methylpyrrolo[1,2-b]pyridazine-5-carboxamide]
< 100 | – | – | *(0.5 μM) | – | CCCc1cc(C)[nH]c(=O)c1CNC(=O)c1c(C)c(-c2c(C)noc2C)n2ncccc12 [Compound 123, 7-(3,5-dimethylisoxazol-4-yl)-6-methyl-N-((6-methyl-2-oxo-4-propyl-1,2-dihydropyridin-3-yl)methyl)pyrrolo[1,2-b]pyridazine-5-carboxamide]
100 to 1000 | – | – | – | – | Cc1cc(C)c(CNC(=O)c2c(C)c(C(=O)N3CCOCC3)n3ncccc23)c(=O)[nH]1 [Compound 125, N-((4,6-dimethyl-2-oxo-1,2-dihydropyridin-3-yl)methyl)-6-methyl-7-(morpholine-4-carbonyl)pyrrolo[1,2-b]pyridazine-5-carboxamide]
1000 to 10000 | – | – | – | – | Cc1cc(C)c(CNC(=O)c2c(C)c(C(=O)N3CCN(S(C)(=O)=O)CC3)n3ncccc23)c(=O)[nH]1 [Compound 126, N-((4,6-dimethyl-2-oxo-1,2-dihydropyridin-3-yl)methyl)-6-methyl-7-(4-(methylsulfonyl)piperazine-1-carbonyl)pyrrolo[1,2-b]pyridazine-5-carboxamide]
< 100 | – | – | – | 2000 to 10000 | COc1ccc2c(C(=O)NCc3c(C)cc(C)[nH]c3=O)c(C)c(C(C)C3CCN(CC(C)(C)O)CC3)n2n1 (stereo not drawn) [Compound 127, N-((4,6-dimethyl-2-oxo-1,2-dihydropyridin-3-yl)methyl)-7-(1-(1-(2-hydroxy-2-methylpropyl)piperidin-4-yl)ethyl)-2-methoxy-6-methylpyrrolo[1,2-b]pyridazine-5-carboxamide]
< 100 | – | – | – | < 400 | Cc1cc(C)c(CNC(=O)c2c(C)c(C(C)C3CCN(CC(C)(C)O)CC3)n3ncccc23)c(=O)[nH]1 (stereo not drawn) [Compound 128, N-((4,6-dimethyl-2-oxo-1,2-dihydropyridin-3-yl)methyl)-7-(1-(1-(2-hydroxy-2-methylpropyl)piperidin-4-yl)ethyl)-6-methylpyrrolo[1,2-b]pyridazine-5-carboxamide]
100 to 1000 | – | – | – | – | CCN(C)C(C)c1c(C)c(C(=O)NCc2c(OC)cc(C)[nH]c2=O)c2cccnn12 (stereo not drawn) [Compound 131, 7-(1-(ethyl(methyl)amino)ethyl)-N-((4-methoxy-6-methyl-2-oxo-1,2-dihydropyridin-3-yl)methyl)-6-methylpyrrolo[1,2-b]pyridazine-5-carboxamide]
